Assay results published in article PMC10338423, “Synthesis and preclinical evaluation of a novel fluorine-18 labeled small-molecule PET radiotracer for imaging of CXCR3 receptor in mouse models of atherosclerosis” (EJNMMI Research, 2023).

Assays:
human CXCR3 = biological target: human CXCR3; parameters: method as in PMID 24174496, PMID 25576486; conditions: cited from earlier work
CXCR3A = biological target: T1, CXCR3A (Homo sapiens, UniProt P49682); experiment: Competition binding assay with [125I]CXCL10 on membranes of CXCR3A-transfected HEK293 cells; conditions: 80 pM 125I-CXCL10, Cheng-Prusoff
T1 construct: crude membranes
T1 sequence (P49682 1-368): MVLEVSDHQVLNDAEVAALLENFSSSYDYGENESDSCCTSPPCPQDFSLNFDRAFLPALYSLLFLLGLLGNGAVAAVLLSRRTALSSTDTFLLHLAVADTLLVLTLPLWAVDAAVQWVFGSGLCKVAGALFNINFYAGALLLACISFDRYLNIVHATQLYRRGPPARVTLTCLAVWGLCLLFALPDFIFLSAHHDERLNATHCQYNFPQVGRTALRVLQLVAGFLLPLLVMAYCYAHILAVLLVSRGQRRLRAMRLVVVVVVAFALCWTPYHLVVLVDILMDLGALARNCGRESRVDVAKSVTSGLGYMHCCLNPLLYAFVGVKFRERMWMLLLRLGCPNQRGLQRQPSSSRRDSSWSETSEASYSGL
Procedure: (§1) The equilibrium inhibition constants (Ki) value of 1 at CXCR3 receptor was measured through competition binding assay using NBI74330 (Tocris Bioscience, Bristol, UK), an antagonist of CXCR3 receptor, [^125I]CXCL10 (ViTrax Inc., Placentia, CA) and CXCR3 transfected human embryonic kidney (HEK) 293 cells. CXCR3 has two major variants, CXCR3A and CXCR3B, with distinctive biological roles, so two types of HEK293 cells containing each CXCR3 variant were prepared. Before the cell-binding assay, two cDNA constructs containing CXCR3 transcript variant A (CXCR3A, GenBank accession No. NM_001504; GenScript) and CXCR3 transcript variant B (CXCR3B, GenBank accession No. NM_001142797; GenScript) and HEK293 cells were purchased from GenScript Biotech (Piscataway, NJ) and ATCC (Manassas, VA), respectively. Then the cDNA constructs were transfected to HEK293 cells, and the transfected cells were cultured to get enough amount for the cell-binding assay. […] The IC50 value of 1 was measured based on the regression plot between the […] radioligand and the different concentrations of 1. […]
(§2) Radioligand binding was performed using crude HEK293 membranes overexpressing CXCR3A or CXCR3B as previously described. […] The Ki values of each competitive antagonist for specific ^125I-CXCL10 binding sites were calculated using the method of Cheng and Prusoff, as previously described. […]

CXCR3 = test system: CXCR3; parameters: method as in PMID 24486132; conditions: read-out: binding affinity IC50; cited from earlier work
CXCR3B = biological target: T2, CXCR3B (Homo sapiens, UniProt P49682); experiment: Competition binding assay with [125I]CXCL10 on membranes of CXCR3B-transfected HEK293 cells; conditions: 80 pM 125I-CXCL10, Cheng-Prusoff
T2 construct: crude membranes
T2 sequence (P49682 1-415 isoform P49682-2): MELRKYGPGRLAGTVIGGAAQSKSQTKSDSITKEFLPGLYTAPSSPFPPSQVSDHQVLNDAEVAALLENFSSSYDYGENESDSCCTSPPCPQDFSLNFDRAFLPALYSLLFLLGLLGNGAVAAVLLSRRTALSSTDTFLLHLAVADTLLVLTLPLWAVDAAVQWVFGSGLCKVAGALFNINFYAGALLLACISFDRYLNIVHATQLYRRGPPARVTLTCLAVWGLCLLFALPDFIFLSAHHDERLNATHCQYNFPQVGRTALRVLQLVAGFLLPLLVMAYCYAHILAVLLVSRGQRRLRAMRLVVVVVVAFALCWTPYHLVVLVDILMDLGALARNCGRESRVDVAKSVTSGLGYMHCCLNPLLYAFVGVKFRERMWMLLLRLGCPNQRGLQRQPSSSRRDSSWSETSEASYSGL
Procedure: as §1, §2

Row | Ki (CXCR3A) [nM] | Ki (CXCR3B) [nM] | Structure (SMILES) | Kd (human CXCR3) [nM] | IC50 (CXCR3) [nM]
1 | – | – | CCNC(=O)c1cnc(N2CCN(C3CCN(Cc4ccc(Cl)cc4)CC3)[C@@H](CC)C2)c(Cl)c1 [VUF11211] | 0.65 | –
2 | 0.81 ± 0.02 | 0.31 ± 0.02 | CC[C@H]1CN(c2ncc(-c3nnco3)cc2Cl)CCN1C1CCN(Cc2ccc(Cl)cc2F)CC1 [compound 1, (S)-2-(5-chloro-6-(4-(1-(4-chloro-2-fluorobenzyl)piperidin-4-yl)-3-ethylpiperazin-1-yl)pyridin-3-yl)-1,3,4-oxadiazole] | – | 0.8
